m = 2'-O-methyl; r = 2'-OH (RNA)
Legend:
[1] = tested on: TLR7/8; assay: Cytokine induction in human PBMCs by immunostimulatory RNA, alone or co-formulated with modified ssRNA in the same SNALP/lipid particle; assay type: cell-based; details: for IFN-α production induced by the RNA alone: lipid-formulated RNA alone, doses 0.1 to 3 μg/ml; for immunostimulatory effects (IFN-α induction) of ApoB antisense ssRNA when co-formulated / IFN-α induction by NP ssRNA when co-formulated: 1:1 molar ratio; for IFN-α levels induced by β-gal antisense ssRNA when co-encapsulated / IL-6 levels induced by β-gal antisense ssRNA when co-encapsulated: equimolar amounts in the same SNALP; for cytokine production from human PBMCs when co-formulated with immunostimulatory RNA: co-formulated with immunostimulatory ssRNA; for IFN-α induction by NP ssRNA when co-formulated: 0.5 μg/ml NP ssRNA
Description: (§1) All RNA molecules used in this study were heated at 90° C. for 3 min. and then placed at 37° C. for 60 min. Non-denaturing PAGE analysis on a 20% polyacrylamide gel was performed to confirm that ssRNA molecules were intact and that no duplexes had formed upon heating. The RNA molecules were encapsulated in a SNALP formulation comprising PEG-cDMA:DLinDMA:cholesterol:DSPC in a 2:40:48:10 mol % ratio (2:40 SNALP), prepared using a syringe press process.
(§2) Fresh human peripheral blood mononuclear cells (PBMCs) were isolated and seeded at about 3×10^5 cells/well in a total volume of 180 μl. Next, 20 μl of the appropriate SNALP diluted in PBS or 10 μl of naked TLR agonist were added to the PBMCs. For time course experiments, PBMCs were pretreated with UmodS ssRNA or a control and the appropriate naked TLR agonist was added at 0, 0.5, or 2 hours after pretreatment. When the SNALP and naked TLR agonist were added separately, the SNALP was added first followed by the naked TLR agonist. At t=24 hr., the cell supernatant was harvested and IFN-α and/or IL-6 levels were determined using ELISA.
The ssRNA molecules used in this study were heated at 90° C. for 3 min. and then placed at 37° C. for 60 min to disrupt any potential secondary structure. Non-denaturing PAGE analysis on a 20% polyacrylamide gel was performed to confirm that ssRNA molecules were intact and that no duplexes had formed upon heating. siRNA duplexes were prepared by annealing equimolar concentrations of two deprotected and desalted ssRNA oligonucleotides using standard procedures. Formation of annealed siRNA duplexes was confirmed by non-denaturing PAGE analysis on a 20% polyacrylamide gel. The RNA molecules were encapsulated in a 2:40 SNALP formulation prepared using a syringe press process.
Fresh human peripheral blood mononuclear cells (PBMCs) were isolated and seeded at about 3×10^5 cells/well in a total volume of 180 μl. Next, 20 μl of the appropriate SNALP diluted in PBS were added to the PBMCs. At t=24 hr., the cell supernatant was harvested and IFN-α and/or IL-6 levels were determined using an enzyme-linked immunosorbent assay (ELISA). For example, IFN-α and IL-6 levels can be measured using a sandwich ELISA kit available from PBL Biomedical (Piscataway, N.J.) and eBioscience (San Diego, Calif.), respectively.
(§3) Lipid Encapsulation of RNA and ODN. RNA or ODN were encapsulated in liposomes by a process of spontaneous vesicle formation as described in Judge et al., supra, and Jeffs et al., Pharm. Res., 22:362-372 (2005).
(§4) Cell Isolation and Culture. Human PBMCs were isolated from whole blood of healthy donors by a standard Ficoll-Hypaque density centrifugation. Blood was diluted 1:1 with PBS, layered onto Ficoll-Paque Plus, and centrifuged at 1600 RPM for 30 min. PBMCs were washed in PBS twice followed by resuspension in complete media (RPMI 1640, 10% heat inactivated FBS, 2 mM L-glutamine, and 1% penicillin/streptomycin). PBMCs were plated at 2.5×10^5 cells/well in 96 well plates for cytokine induction assays.
(§5) Loxoribine (InvivoGen; San Diego, Calif.), polyIC (Sigma-Aldrich; St. Louis, Mo.), and formulated nucleic acids were diluted in PBS and added to either human PBMC or Flt3L DC cultures. Cells were incubated 24 h at 37° C. before supernatants were assayed for cytokines by ELISA.
(§6) Cytokine ELISA. All cytokines were quantified using sandwich ELISA kits according to the manufacturer's instructions. These were mouse and human IFN-α (PBL Biomedical; Piscataway, N.J.) and IL-6 (eBioscience; San Diego, Calif.).

[2] = target: T1, TLR7 (Homo sapiens, UniProt Q9NYK1); assay: Loxoribine (TLR7 agonist)-induced IFN-α/IL-6 production in human PBMCs; assay type: cell-based; details: SNALP-encapsulated ssRNA added before naked agonist, supernatant at 24 hr, ELISA
T1 construct: Human PBMCs were isolated from whole blood of healthy donors; endogenous in cells; host or cells: primary human PBMCs from healthy donors
T1 sequence (Q9NYK1 27-1049): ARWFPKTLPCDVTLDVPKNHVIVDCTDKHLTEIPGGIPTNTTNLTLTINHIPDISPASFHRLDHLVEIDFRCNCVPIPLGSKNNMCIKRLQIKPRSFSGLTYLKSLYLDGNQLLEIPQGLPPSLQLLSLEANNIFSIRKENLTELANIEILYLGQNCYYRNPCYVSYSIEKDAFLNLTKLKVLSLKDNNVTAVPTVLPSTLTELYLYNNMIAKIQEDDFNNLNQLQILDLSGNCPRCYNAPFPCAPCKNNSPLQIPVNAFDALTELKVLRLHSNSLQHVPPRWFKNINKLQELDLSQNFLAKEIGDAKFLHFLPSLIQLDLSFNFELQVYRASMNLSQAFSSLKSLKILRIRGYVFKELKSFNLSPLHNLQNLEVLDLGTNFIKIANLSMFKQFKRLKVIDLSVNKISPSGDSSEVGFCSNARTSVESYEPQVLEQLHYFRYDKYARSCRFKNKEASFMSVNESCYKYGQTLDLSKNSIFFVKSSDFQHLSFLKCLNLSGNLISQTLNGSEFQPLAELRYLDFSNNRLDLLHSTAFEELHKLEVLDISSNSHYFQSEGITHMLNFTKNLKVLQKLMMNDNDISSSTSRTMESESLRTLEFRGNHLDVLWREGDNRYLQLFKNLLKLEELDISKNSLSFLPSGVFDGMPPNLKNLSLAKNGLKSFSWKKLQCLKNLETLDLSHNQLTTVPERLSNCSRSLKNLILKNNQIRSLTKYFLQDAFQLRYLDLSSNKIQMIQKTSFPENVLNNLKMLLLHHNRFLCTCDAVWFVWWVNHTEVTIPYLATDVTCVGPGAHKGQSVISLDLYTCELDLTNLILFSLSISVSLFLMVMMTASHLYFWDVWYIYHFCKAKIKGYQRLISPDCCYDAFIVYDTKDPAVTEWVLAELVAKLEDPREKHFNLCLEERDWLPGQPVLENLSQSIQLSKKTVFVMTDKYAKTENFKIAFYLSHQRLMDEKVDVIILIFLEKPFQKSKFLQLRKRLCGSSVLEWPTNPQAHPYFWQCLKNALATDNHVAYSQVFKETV
Description: as §1, §2, §3, §4, §5, §6

[3] = human PBMCs, co-formulated in the same SNALP, 24 h

ApoB antisense ssRNA: immunostimulatory antisense ssRNA: AUUGGUAUUCAGUGUGAUGACAC (chemistry not given here) [reference compound]
IFN-α production induced by the RNA alone ([1]; human PBMC cultures): induced high levels of IFN-α | IFN-α production induced by ApoB antisense ssRNA in absence of modified ssRNA ([1]; human PBMCs, SNALP, 24 hr): 5000 to 6000 pg/mL

Luc: unmodified Luc sense strand ssRNA: 5′GAUUAUGUCCGGUUAUGUAUU 3′ (sense GAUUAUGUCCGGUUAUGUAUU; RNA, backbone not given here) [reference compound]
immunostimulatory effects (IFN-α induction) of ApoB antisense ssRNA when co-formulated [1, 3]: high levels of IFN-α were still induced

NP1496 UmodS: influenza NP1496 sense strand ssRNA with 2′OMe uridines: GGAmUCmUmUAmUmUmUCmUmUCGGAGUU (sense GGAUCUUAUUUCUUCGGAGUU; sugars from the 5' end rrrmrmmrmmmrmmrrrrrrr, backbone not given here)
IFN-α production induced by the RNA alone ([1]; […]): do not induce measurable IFN-α production | immunostimulatory effects of ApoB antisense ssRNA at molar excess of agonist ([1]; human PBMCs, co-formulated in the same SNALP at 1:1, 1:2, or 1:4 molar ratio (up to 4-fold molar excess of agonist)): antagonized | immunostimulatory effects (IFN-α induction) of ApoB antisense ssRNA when co-formulated [1, 3]: abolished | immunostimulatory effects (IFN-α induction) of ApoB antisense ssRNA when co-formulated ([1]; human PBMCs, co-formulated in the same SNALP, 24 h, listed as NP-mU): abrogated | immunostimulatory effects (IFN-α induction) of ApoB siRNA duplex when co-formulated ([1]; human PBMCs, co-formulated in the same SNALP, equimolar, 24 h): abrogated | IFN-α levels induced by β-gal antisense ssRNA when co-encapsulated ([1]; human PBMCs, 24 h): abrogated

NP1496: unmodified NP1496 sense strand ssRNA: GGAUCUUAUUUCUUCGGAGUU (RNA, backbone not given here) [reference compound]
immunostimulatory effects (IFN-α induction) of ApoB antisense ssRNA when co-formulated [1, 3]: high levels of IFN-α were still induced

NP-mC: 2′OMe-cytidine RNA: GGAUmCUUAUUUmCUUmCGGAGUU (GGAUCUUAUUUCUUCGGAGUU; 2'-O-methyl at C, RNA at AGU, backbone not given here)
immunostimulatory effects (IFN-α induction) of ApoB antisense ssRNA when co-formulated [1, 3]: do not inhibit

polyUmod10: 2′OMe-uridine homopolymer of 10 nucleotides in length (UUUUUUUUUU; all 2'-O-methyl, backbone not given here)
cytokine production from human PBMCs when co-formulated with immunostimulatory RNA ([1]; human PBMCs): significantly reduced cytokine induction, although inhibition with these shorter oligonucleotides was not absolute | IFN-α levels induced by β-gal antisense ssRNA when co-encapsulated ([1]; human PBMCs, 24 h): significantly reduced | IL-6 levels induced by β-gal antisense ssRNA when co-encapsulated ([1]; human PBMCs, 24 h): significantly reduced | IFN-α levels induced by β-gal antisense ssRNA when co-encapsulated ([1]; human PBMCs, 24 h, listed as (mU)10): inhibit

polyUmod15: 2′OMe-uridine homopolymer of 15 nucleotides in length (UUUUUUUUUUUUUUU; all 2'-O-methyl, backbone not given here)
cytokine production from human PBMCs when co-formulated with immunostimulatory RNA ([1]; human PBMCs): equally as effective at inhibiting cytokine production | IFN-α levels induced by β-gal antisense ssRNA when co-encapsulated ([1]; human PBMCs, 24 h): significantly reduced | IL-6 levels induced by β-gal antisense ssRNA when co-encapsulated ([1]; human PBMCs, 24 h): significantly reduced | IFN-α levels induced by β-gal antisense ssRNA when co-encapsulated ([1]; human PBMCs, 24 h, listed as (mU)15): inhibit | IL-6 levels induced by naked loxoribine [2]: inhibited only IFN-α levels | level of IFN-α induced by naked loxoribine [2]: inhibited

β-gal [reference compound]
immunostimulatory effects (IFN-α induction) of ApoB antisense ssRNA when co-formulated [1, 3]: high levels of IFN-α were still induced

βgal-mA: 2′OMe-adenosine modified RNA: CUmACmACmAmAmAUCmAGCGmAUUUU (CUACACAAAUCAGCGAUUUU; 2'-O-methyl at A, RNA at CGU, backbone not given here)
IFN-α induction by NP ssRNA when co-formulated ([1]; human PBMCs, 24 h): inhibits

βgal-mC: 2′OMe-cytidine RNA: mCUAmCAmCAAAUmCAGmCGAUUUUU (CUACACAAAUCAGCGAUUUUU; 2'-O-methyl at C, RNA at AGU, backbone not given here)
IFN-α induction by NP ssRNA when co-formulated ([1]; human PBMCs, 24 h): not | immunostimulatory effects (IFN-α induction) of ApoB antisense ssRNA when co-formulated [1, 3]: do not inhibit

βgal-mG: 2′OMe-guanosine modified RNA: CUACACAAAUCAmGCmGAUUUUU (CUACACAAAUCAGCGAUUUUU; sugars from the 5' end r12 m1 r1 m1 r6, backbone not given here)
IFN-α induction by NP ssRNA when co-formulated ([1]; human PBMCs, 24 h): inhibits

Source: patent publication US20080171716A1, “NUCLEIC ACID MODULATION OF TOLL-LIKE RECEPTOR-MEDIATED IMMUNE STIMULATION” (Protiva Biotherapeutics, Inc., priority 2006, published 2008)
